Experiment [1] deals with human IR-B. The experiment is described as follows: Competitive receptor binding (SPA), IR-B. The settings on record: for IC50: SPA, WGA PVT PEI beads, 2 µg membranes from CHO cells overexpressing IR-B, 100 pmol/L A14[^125I]-insulin, pH 7.8, 12 h, 23°C, means ± SEM, at least three times, read-out: IR-B affinity IC50; for IR-B binding, less active than human insulin: decrease relative to human insulin. As for the experimental part: The binding of the different insulins to the human IR-A and IR-B was analyzed in a competitive binding assay using the scintillation proximity assay as previously described, [30]. […] Briefly, cells were grown to confluence and gently detached, transferred to a centrifugation tube followed by centrifugation for 10 minutes at 600×g at 4°C. The pellet was resuspended in ice-cold 2.25 STM buffer (2.25 mol/L sucrose, 5 mmol/L Tris-HCl pH 7.4, 5 mmol/L MgCl2, 1x Complete Protease Inhibitor) and disrupted using a hand-held Dounce homogenizer followed by sonication. This homogenate was transferred to a centrifugation tube, overlaid with 0.8 STM buffer (0.8 mol/L sucrose, 5 mmol/L Tris-HCl pH 7.4, 5 mmol/L MgCl2, 1x Complete Protease Inhibitor) and centrifuged for 90 minutes at 100 000×g at 4°C. The emerging pellicle at the interface was collected, transferred to a new tube and washed two times with PBS by centrifugation for 10 minutes at 1500×g. The final pellet was resuspended in a small volume of dilution buffer (50 mmol/L Tris-HCl pH 7.4, 5 mmol/L MgCl2, 1x Complete Protease Inhibitor) and homogenized with a Dounce homogenizer. These plasma membrane preparations were stored until usage at –80°C.
Binding experiments were conducted in 96-well microplates. Per well 2 µg of membranes were incubated with 0.25 mg wheat germ agglutinin polyvinyltoluene polyethylenimine SPA beads, 100 pmol/L A14[^125I]-insulin and various concentrations of unlabeled insulins in a binding buffer containing 0.05 mol/L Tris-HCl pH 7.8, 0.15 mol/L NaCl, 0.1% BSA, Complete Protease Inhibitor for 12 hours at room temperature (23°C). The radioactivity was measured at equilibrium in a microplate scintillation counter (Wallac Microbeta, Freiburg, Germany).
(§1) For each experiment, IC50 or EC50 values were obtained using the 4-parameter logistic model according to Ratkowsky and Reedy (1986). The adjustment was obtained by non-linear regression using the Levenberg-Marquardt algorithm in SAS v9.1.3 software via Biost@t-Speed V2.0-LTS internal application. If necessary, lower and upper asymptotes were set to 0 and 100, respectively.
(§2) The binding of a constant concentration of [^125I]insulin to plasma membranes from CHO cells overexpressing either IR-A or IR-B was measured in presence of increasing concentrations of unlabeled competing ligand after incubation at room temperature for 12 h. All data has been corrected for non-specific binding and are expressed as percentage of [^125I]insulin in absence of competing ligand. To analyze the insulin-stimulated activation and subsequent autophosphorylation of the insulin receptor CHO cells overexpressing the human IR-A (C) or IR-B (D) were stimulated for 15 min at 37°C with increasing concentrations of peptides, then the cells were fixed with 3.7% PFA and the amount of phosphotyrosines was analyzed via In-Cell Western. The data represent mean values ± SEM of at least 3 individual experiments measured in quadruplicate.

In experiment [2] the test system is human IR-B. The experiment is described as follows: IR-B autophosphorylation (In-Cell Western). The experiment is classed as cell-based. Conditions: for EC50: CHO cells overexpressing IR-B, 15 min at 37°C, In-Cell Western, means ± SEM, at least three times, read-out: IR-B auto-phosphorylation EC50.
From the text: CHO cells expressing either the IR-A or the IR-B isoform were used for IR autophosphorylation assays using In-Cell Western. For the analysis of IGF1R autophosphorylation the receptor was overexpressed in a mouse embryo fibroblast 3T3 Tet off cell line (BD Bioscience, Heidelberg, Germany) that was stably transfected with IGF1R tetracycline-regulatable expression plasmid resulting in the expression of ∼2.6×10^5 IGF1R per cell (as determined by FACS analysis, unpublished data). In order to determine the receptor tyrosine phosphorylation level, cells were seeded into 96-well plates and grown for 48 h. Cells were serum starved with serum-free medium αMEM (PAN Biotech GmbH, Aidenbach, Germany) for 3–4 h. […] After incubation the medium was discarded and the cells were fixed in 3.75% freshly prepared para-formaldehyde for 20 min. Cells were permeabilized with 0.1% Triton-X-100 in PBS for 20 min. Blocking was performed with Odyssey blocking buffer (LI-COR, Bad Homburg, Germany) overnight at 4°C. Anti-pTyr 4G10 (Millipore, Schwalbach, Germany) was incubated for 2 h at room temperature. After incubation of the primary antibody, cells were washed with PBS+0.1% Tween20. The secondary anti-mouse-IgG-800-CW antibody (Rockland, Gilbertsville, PA, USA) was incubated for 1 h. Results were normalized by the quantification of DNA with TO-PRO3 dye (Invitrogen, Karlsruhe, Germany). Data were obtained as relative units (RU) and are presented as fold over basal.
as §1, §2
Insulin receptor autophosphorylation was studied using CHO cells overexpressing either IR-A or IR-B. For detection an immunocytochemical microplate assay (In-Cell Western) based on two-colour fluorescence was applied.

From publication PMC2832019, “In Vitro Metabolic and Mitogenic Signaling of Insulin Glargine and Its Metabolites” (PLoS ONE, 2010) come the findings set out here.

Broadly, the IC50 is the concentration that gives 50% inhibition. A word on the EC50: it is the concentration that produces a half-maximal response.

With [Gly^A21,Arg^B31]insulin [Glargine IM], in experiment [1], the IC50 is 1.08 ± 0.06 nM and the “IR-B binding, less active than human insulin” value is recorded as 40–50%. Further, the EC50 in experiment [2] was found to be 20.9 ± 1.3 nM.
As for [Asp^B10]insulin, the IC50 in experiment [1] was determined as 0.21 ± 0.03 nM. For the same substance, in experiment [1] (relative to human insulin), the “IR-B binding, more potent relative to human insulin” value worked out at 2.7 fold. For the same substance, the EC50 in experiment [2] turned out to be 3.32 ± 0.78 nM.
Regarding “Human insulin: human insulin produced by recombinant DNA techniques or enzymatic semisynthesis”, the EC50 in experiment [2] came out at 11.7 ± 1.4 nM.
On to “IGF-1: IGF-1 obtained from R&D Systems and Cell Sciences”, for which the “IR-B affinity less potent than human insulin” value in experiment [1] (IR-B, relative to human insulin) was ~300 fold. Moreover, in experiment [1], the IC50 is 171 ± 50 nM. The EC50 in experiment [2] is > 1000 nM.
Turning to [Gly^A21]insulin [Glargine M1], in experiment [1], the IC50 was 1.35 ± 0.2 nM and the “IR-B binding, less active than human insulin” value was 40–50%. Besides, in experiment [2], the EC50 worked out at 18.1 ± 1.7 nM.
For “[Gly^A21,des-Thr^B30]insulin [Glargine M2]”, in that order: 1.09 ± 0.06 nM, 40–50% and 21.4 ± 2.3 nM.
As to “[Gly^A21,Arg^B31,Arg^B32]insulin [Glargine]”, in experiment [1], the IC50 came out at 1.1 ± 0.12 nM and the “IR-B binding, less active than human insulin” value is 40–50%. Also, in experiment [2], the EC50 is 23.6 ± 2.1 nM. For the same substance, in experiment [2] (relative to human insulin), the “decrease in IR-B autophosphorylation activity” value is on record as 30–50%.
